# Source: ChEMBL document CHEMBL5223119, “Discovery of pyrrolo[2,3-d]pyrimidine-based molecules as a Wee1 inhibitor template” (Bioorg Med Chem Lett, 2022)
# How the values were obtained:
# NCI-H1299 = test: Antiproliferative activity against human NCI-H1299 cells assessed as cell growth inhibition incubated for 3 days by CellTiter-Glo Luminescent assay; assay type: functional, cell-based; conditions: NCI-H1299, 72 h
# [1] = Half life in rat at 5 mg/kg,IG measured upto 24 hrs by LC-MS/MS analysis; assay type: ADME, organism-based; conditions: in vivo, po
# [2] = AUC (0-infinity) in rat at 5 mg/kg,IG measured upto 24 hrs by LC-MS/MS analysis; assay type: ADME, organism-based; set-up: dose 5 mg/kg, time < 24 hrs, route ig; conditions: in vivo, po
# [3] = Cmax in rat at 5 mg/kg,IG measured upto 24 hrs by LC-MS/MS analysis; assay type: ADME, organism-based; set-up: dose 5 mg/kg, time < 24 hrs, route ig; conditions: in vivo, po
# [4] = Tmax in rat at 5 mg/kg,IG measured upto 24 hrs by LC-MS/MS analysis; assay type: ADME, organism-based; conditions: in vivo, po
# Wee1-like protein kinase = Wee1-like protein kinase (Homo sapiens, UniProt P30291); test: Inhibition of Wee1 (unknown origin) incubated for 60 mins by LanthaScreen Eu-Kinase binding assay
# Sequence of Wee1-like protein kinase (P30291 whole entry): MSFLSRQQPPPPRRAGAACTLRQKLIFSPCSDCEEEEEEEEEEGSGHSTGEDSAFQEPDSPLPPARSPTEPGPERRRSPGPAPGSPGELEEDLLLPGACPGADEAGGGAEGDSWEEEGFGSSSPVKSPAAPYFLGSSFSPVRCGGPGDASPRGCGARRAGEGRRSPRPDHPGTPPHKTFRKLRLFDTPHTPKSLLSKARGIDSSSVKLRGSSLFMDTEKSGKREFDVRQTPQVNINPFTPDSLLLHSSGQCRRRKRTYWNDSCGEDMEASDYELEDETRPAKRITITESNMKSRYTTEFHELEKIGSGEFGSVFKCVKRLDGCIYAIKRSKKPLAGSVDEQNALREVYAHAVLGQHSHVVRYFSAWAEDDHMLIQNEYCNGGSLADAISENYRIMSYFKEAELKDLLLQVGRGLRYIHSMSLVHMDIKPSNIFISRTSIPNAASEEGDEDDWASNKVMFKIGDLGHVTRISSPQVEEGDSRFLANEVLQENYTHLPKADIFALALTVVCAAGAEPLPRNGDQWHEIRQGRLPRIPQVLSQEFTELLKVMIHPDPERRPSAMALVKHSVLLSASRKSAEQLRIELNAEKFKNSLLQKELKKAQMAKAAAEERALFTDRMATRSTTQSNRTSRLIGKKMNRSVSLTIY
SMILES,IC50 (NCI-H1299) [nM],half-life [1] [h],AUC(0-inf) [2] [ng·h/mL],Cmax [3] [ng/mL],Tmax [4] [h],IC50 (Wee1-like protein kinase) [nM]
CN1CCN(C2CCN(c3ccc(Nc4ncc5c(F)c(C6CC6)n(-c6cccc(C(C)(C)O)n6)c5n4)cc3F)CC2)CC1,623,33.4,4580,117,6.7,10.6
CN1CCC2(CC1)CCN(c1ccc(Nc3ncc4cc(C5CC5)n(-c5cccc(C(C)(C)O)n5)c4n3)cc1)CC2,199,19.2,4070,163,4.8,
CCCc1c(F)c2cnc(Nc3ccc(N4CCOCC4)cc3)nc2n1-c1cccc(N=S(C)(C)=O)n1,332,,,,,3.37
Cc1cc2cnc(Nc3ccc(N4CCN(C)CC4)cc3)nc2n1-c1cccc(N=S(C)(C)=O)n1,59,,,,,
CN1CCN(C2CCN(c3ccc(Nc4ncc5c(F)c(C6CC6)n(-c6cccc(C(C)(C)O)n6)c5n4)cc3)CC2)CC1,211,10.9,1750,83,6,0.86
CC(C)c1cc2cnc(Nc3ccc(N4CCN(C)CC4)cc3)nc2n1-c1cccc(N=S(C)(C)=O)n1,100,,,,,
CN1CCN(C2CCN(c3ccc(Nc4ncc5cc(C6CC6)n(-c6cccc(N=S(C)(C)=O)n6)c5n4)cc3)CC2)CC1,156,,,,,2.54
CCCc1cc2cnc(Nc3ccc(N4CCC(N5CCN(C)CC5)CC4)cc3)nc2n1-c1cccc(N=S(C)(C)=O)n1,87,,,,,
CN1CCN(C2CCN(c3ccc(Nc4ncc5cc(C6CC6)n(-c6cccc(C(C)(C)O)n6)c5n4)cc3)CC2)CC1,105,,,,,1.33
CN1CCN(c2ccc(Nc3ncc4cc(C5CC5)n(-c5cccc(N=S(C)(C)=O)n5)c4n3)cc2F)CC1,42,,,,,
CCc1cc2cnc(Nc3ccc(N4CCN(C)CC4)cc3)nc2n1-c1cccc(N=S(C)(C)=O)n1,23,2.24,48,8.1,2.67,
COCc1cc2cnc(Nc3ccc(N4CCN(C)CC4)cc3)nc2n1-c1cccc(N=S(C)(C)=O)n1,101,,,,,2.03
CN1CCN(c2ccc(Nc3ncc4cc(C5CC5)n(-c5cccc(N=S(C)(C)=O)n5)c4n3)cc2)CC1,42,8.26,286,76.9,0.92,0.92
CCCc1cc2cnc(Nc3ccc(N4CCN(C)CC4)cc3)nc2n1-c1cccc(N=S(C)(C)=O)n1,33,3.24,188,29.4,2.33,
CCCc1cc2cnc(Nc3ccc(N4CCOCC4)cc3)nc2n1-c1cccc(N=S(C)(C)=O)n1,451,,,,,8.3
C=CCn1c(=O)c2cnc(Nc3ccc(N4CCN(C)CC4)cc3)nc2n1-c1cccc(C(C)(C)O)n1 [ADAVOSERTIB],104,,,,,

# Results, then the compound that gave them:
IC50 (NCI-H1299) [nM],half-life [1] [h],AUC(0-inf) [2] [ng·h/mL],Cmax [3] [ng/mL],Tmax [4] [h],IC50 (Wee1-like protein kinase) [nM],SMILES
288,,,,,38.2,CN1CCN(c2ccc(Nc3ncc4c(F)c(C5CC5)n(-c5cccc(C(C)(C)O)n5)c4n3)cc2)CC1
126,,,,,,CCCc1cc2cnc(Nc3ccc(N4CCN(C)CC4)cc3)nc2n1-c1cccc(C(C)(C)O)n1
,,,,,0.1,CCc1cc2cnc(Nc3ccc(N4CCN(C)CC4)cc3)nc2n1-c1cccc(C(C)(C)O)n1
91,,,,,0.42,CC(C)c1cc2cnc(Nc3ccc(N4CCN(C)CC4)cc3)nc2n1-c1cccc(C(C)(C)O)n1
,3.56,710,125,1,,Cc1cc2cnc(Nc3ccc(N4CCN(C)CC4)cc3)nc2n1-c1cccc(C(C)(C)O)n1
43,4.58,314,36.8,1.67,,CCCc1c(F)c2cnc(Nc3ccc(N4CCN(C)CC4)cc3)nc2n1-c1cccc(N=S(C)(C)=O)n1
1720,,,,,9.3,CCCc1c(F)c2cnc(Nc3ccc(N4CCN(C)CC4)cc3)nc2n1-c1cccc(C(C)(C)O)n1
